Measurements reported in US9668948B2, “Products and methods for reducing malodor from the pudendum” (priority 2009, dated 2017).

Key:
[1] = 1 gram in ... ml of water; 25° C.; cited from earlier work
Clostridium sporogenes = assay: Suppression of trimethylamine (TMA) formation from choline by bacterial culture, headspace GC/FID; assay type: cell-based; conditions: added to the culture solution (internal standard mix)
Protocol: A viable method was developed for the assay of trimethylamine (TMA). The method utilizes triethylamine and methanol together as internal standards and choline as the substrate for generating TMA from the bacterial species. The bacterial culture for these studies was Clostridium sporogenes, which was grown in house at BioScreen.
Tests were conducted with a headspace gas chromatograph to verify that Clostridium sporogenes bacterial could actively generating trimethylamine from a choline substrate.
Equipment for the testing included a Trace GC Ultra gas chormoatograph and a Varian CP-Volamine column. An FID detector was used with 2.5 mL/min helium flow.
The bacterial species C. sporogenes, a species found in the lower GI tract. was inoculated into 100 mL of Fluid Thioglycolate medium and incubated at 35±2° C. for a minimum of 16 hours. At the end of incubation, the concentration of the bacterial suspension was confirmed by serial dilution in 9 mL PBS up to 10^−7 and anaerobic incubation at 32.5±2.5° C. for a minimum of 48 hours. Counts were recorded from dilution plates with 25 to 250 colonies. The average counts were multiplied by the reciprocal of the dilution factor to furnish the CFU/mL of the bacterial species. […]

Row | Compound | solubility in water: ml of water for 1 gram [1] | effect on reactivity of the bacterial culture with choline (Clostridium sporogenes)
1 | O=C(O)C(O)c1ccccc1 (centres unmarked) [mandelic acid] | 6.3 mL | –
2 | benzalkonium chloride | – | stops further reactivity
